# Measured values published in BigSolDB 2.1.
structure (smiles),measurement,setting,value
O=C(NC[C@H]1CN(c2ccc(N3CCOCC3=O)cc2)C(=O)O1)c1ccc(Cl)s1,solubility (mole fraction),"in dichloromethane, 283.15 K",0.000254
same,solubility (mole fraction),"in dichloromethane, 288.15 K",0.00028
same,solubility (mole fraction),"in dichloromethane, 293.15 K",0.000308
same,solubility (mole fraction),"in dichloromethane, 298.15 K",0.000338
same,solubility (mole fraction),"in dichloromethane, 303.15 K",0.00037
same,solubility (mole fraction),"in dichloromethane, 308.15 K",0.000403
same,solubility (mole fraction),"in ethanol, 283.15 K",1.21e-05
same,solubility (mole fraction),"in ethanol, 288.15 K",1.46e-05
same,solubility (mole fraction),"in ethanol, 293.15 K",1.75e-05
same,solubility (mole fraction),"in ethanol, 298.15 K",2.09e-05
same,solubility (mole fraction),"in ethanol, 303.15 K",2.5e-05
same,solubility (mole fraction),"in ethanol, 308.15 K",2.94e-05
same,solubility (mole fraction),"in methanol, 283.15 K",2.41e-05
same,solubility (mole fraction),"in methanol, 288.15 K",2.97e-05
same,solubility (mole fraction),"in methanol, 293.15 K",3.63e-05
same,solubility (mole fraction),"in methanol, 298.15 K",4.42e-05
same,solubility (mole fraction),"in methanol, 303.15 K",5.29e-05
same,solubility (mole fraction),"in methanol, 308.15 K",6.36e-05
same,solubility (mole fraction),"in n-butanol, 283.15 K",5.56e-06
same,solubility (mole fraction),"in n-butanol, 288.15 K",7.84e-06
same,solubility (mole fraction),"in n-butanol, 293.15 K",1.08e-05
same,solubility (mole fraction),"in n-butanol, 298.15 K",1.48e-05
same,solubility (mole fraction),"in n-butanol, 303.15 K",2.01e-05
same,solubility (mole fraction),"in n-butanol, 308.15 K",2.73e-05
same,solubility (mole fraction),"in n-propanol, 283.15 K",7.99e-06
same,solubility (mole fraction),"in n-propanol, 288.15 K",1.05e-05
same,solubility (mole fraction),"in n-propanol, 293.15 K",1.37e-05
same,solubility (mole fraction),"in n-propanol, 298.15 K",1.77e-05
same,solubility (mole fraction),"in n-propanol, 303.15 K",2.26e-05
same,solubility (mole fraction),"in n-propanol, 308.15 K",2.88e-05
